“Also recorded” adds a separate entry of the source. Square brackets hold non-standard residues; d marks the D form. Ends that are not written are not given here. Peptide text beside a SMILES is read from it. pGlu = O=C1CC[C@@H](C(=O)O)N1
Tests used:
B. floridae GnRHR2 = biological target: T1, B. floridae GnRHR2 (Branchiostoma floridae, UniProt C0IP20); assay: Luminescence response in HEK293-G5a cells expressing B. floridae GnRHR2 (with Gαqi9); assay type: cell-based
T1 sequence (C0IP20 1-397): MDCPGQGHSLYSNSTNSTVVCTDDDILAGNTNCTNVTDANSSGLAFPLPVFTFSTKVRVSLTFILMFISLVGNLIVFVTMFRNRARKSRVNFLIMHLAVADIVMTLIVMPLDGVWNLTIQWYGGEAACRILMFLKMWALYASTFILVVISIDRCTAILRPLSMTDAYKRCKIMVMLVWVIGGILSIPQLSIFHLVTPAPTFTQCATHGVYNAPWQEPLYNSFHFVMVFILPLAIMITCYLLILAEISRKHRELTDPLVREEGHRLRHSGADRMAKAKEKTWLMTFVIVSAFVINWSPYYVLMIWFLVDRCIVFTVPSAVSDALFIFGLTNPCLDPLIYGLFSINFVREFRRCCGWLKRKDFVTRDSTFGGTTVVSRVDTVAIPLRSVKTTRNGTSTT
Text: (§1) For this purpose, we expressed individual receptors in a heterologous expression system comprising human embryo kidney 293 cells (HEK293-G5a) cells and monitored luminescence responses to three synthetic peptides.
(§2) Five millimoles of stock solutions of all peptides were first prepared in 50% Dimethyl sulfoxide. […] These receptors were codon-optimized for mammalian cell lines, synthesized and cloned into pcDNA3.4(+) vector by Genscript synthesis services. A 5′ partial Kozak translation initiation sequence (CCACC) was also included to improve expression. The codon-optimized receptor sequences are provided in supplementary file 9, Supplementary Material online. HEK293-G5a (Angio-proteomie CAT no. cAP-0200GFP-AEQ-Cyto) cells were cultured in 96 well-plates containing 100 μl of Dublecco’s Modified Eagle medium (DMEM; Thermo; Cat. No. 10566016) supplemented with 10% foetal bovine serum (Thermo; Cat. No. 10082147). The plates were kept in an incubator at 37°C and 5% CO2. Upon reaching 85% confluency, cells were co-transfected with plasmids encoding individual receptors or the empty pcDNA3.1 + vector (control), and the Gαqi9 promiscuous protein [Addgene; Cat. No. 125711 {[Masharina et al. 2012]}], as described previously ([Yañez-Guerra et al. 2022]). Transfections were carried out with 60 ng of each plasmid and 0.45 μl of the transfection reagent Transfectamine 5,000 (AAT-bioquest; Cat. No. 60022) per well. Two days post-transfection, the media was replaced with fresh DMEM medium supplemented with […] coelenterazine-H (Thermo Fisher Scientific; Cat. No. C6780). The cells were incubated for 2 h and then used for the luminescence assay. Various concentrations of the three synthetic peptides ranging from 10^−4 M to 10^−12 M were prepared in DMEM media and tested on the cells. Luminescence levels were recorded and integrated over a 65-s measurement period in a FlexStation 3 Multi-Mode Microplate Reader (Molecular Devices). A minimum of two independent transfections (biological replicates) for each receptor and two–three technical replicates for each peptide concentration were performed. […]

B. floridae CRZR1 = biological target: T2, B. floridae CRZR1 (Branchiostoma floridae, UniProt C0IP22); assay: Luminescence response in HEK293-G5a cells expressing B. floridae CRZR1 (with Gαqi9); assay type: cell-based
T2 sequence (C0IP22 1-831): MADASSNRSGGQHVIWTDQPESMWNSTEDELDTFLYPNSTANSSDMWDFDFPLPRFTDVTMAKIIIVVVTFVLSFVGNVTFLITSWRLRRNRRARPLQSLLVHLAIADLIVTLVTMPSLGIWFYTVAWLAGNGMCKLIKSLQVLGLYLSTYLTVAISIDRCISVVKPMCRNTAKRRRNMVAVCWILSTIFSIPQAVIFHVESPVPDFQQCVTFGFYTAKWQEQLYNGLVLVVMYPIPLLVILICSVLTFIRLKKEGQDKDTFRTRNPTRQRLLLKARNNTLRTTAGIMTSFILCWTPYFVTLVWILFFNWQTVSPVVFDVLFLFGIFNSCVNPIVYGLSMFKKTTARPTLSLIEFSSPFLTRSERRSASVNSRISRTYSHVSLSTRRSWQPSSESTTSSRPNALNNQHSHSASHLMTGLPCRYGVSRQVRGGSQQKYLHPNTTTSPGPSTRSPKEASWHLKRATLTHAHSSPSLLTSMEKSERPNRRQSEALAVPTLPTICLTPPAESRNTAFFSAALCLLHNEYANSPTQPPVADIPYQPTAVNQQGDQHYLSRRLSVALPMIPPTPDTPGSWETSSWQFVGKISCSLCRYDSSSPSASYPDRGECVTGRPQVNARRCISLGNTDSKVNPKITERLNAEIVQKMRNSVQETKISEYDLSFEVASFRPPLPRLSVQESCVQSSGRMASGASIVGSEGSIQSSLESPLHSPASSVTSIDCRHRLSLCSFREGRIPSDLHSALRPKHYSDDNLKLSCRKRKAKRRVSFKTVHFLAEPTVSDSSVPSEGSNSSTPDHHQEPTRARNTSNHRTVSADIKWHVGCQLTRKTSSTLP
Text: as §1, §2

B. floridae GnRHR1 = biological target: T3, B. floridae GnRHR1 (Branchiostoma floridae, UniProt C0IP19); assay: Luminescence response in HEK293-G5a cells expressing B. floridae GnRHR1 (with Gαqi9); assay type: cell-based
T3 sequence (C0IP19 1-403): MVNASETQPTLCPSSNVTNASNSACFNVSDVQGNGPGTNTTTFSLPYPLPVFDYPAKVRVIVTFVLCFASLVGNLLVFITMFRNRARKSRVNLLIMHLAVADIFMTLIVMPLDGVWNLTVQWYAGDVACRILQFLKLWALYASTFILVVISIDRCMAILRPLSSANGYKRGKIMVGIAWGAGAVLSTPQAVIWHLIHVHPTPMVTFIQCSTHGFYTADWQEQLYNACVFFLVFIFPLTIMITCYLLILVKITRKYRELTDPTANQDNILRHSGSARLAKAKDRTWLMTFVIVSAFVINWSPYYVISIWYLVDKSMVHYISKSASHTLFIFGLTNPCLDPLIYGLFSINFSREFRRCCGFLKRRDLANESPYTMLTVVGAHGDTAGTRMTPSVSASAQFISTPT
Text: as §1, §2

B. floridae CRZR3 = biological target: T4, B. floridae CRZR3 (Branchiostoma floridae, UniProt A0A9J7HT38); assay: Luminescence response in HEK293-G5a cells expressing B. floridae CRZR3 (with Gαqi9); assay type: cell-based; settings: for EC50: fig. 2D, HEK293-G5a, Gαqi9, 10^−4 M to 10^−12 M in DMEM, luminescence integrated over 65 s, normalized to maximum response, four-parameter curve, minimum of two independent transfections, read-out: EC50 values for the dose–response curves, CRZR3
T4 sequence (A0A9J7HT38 1-394): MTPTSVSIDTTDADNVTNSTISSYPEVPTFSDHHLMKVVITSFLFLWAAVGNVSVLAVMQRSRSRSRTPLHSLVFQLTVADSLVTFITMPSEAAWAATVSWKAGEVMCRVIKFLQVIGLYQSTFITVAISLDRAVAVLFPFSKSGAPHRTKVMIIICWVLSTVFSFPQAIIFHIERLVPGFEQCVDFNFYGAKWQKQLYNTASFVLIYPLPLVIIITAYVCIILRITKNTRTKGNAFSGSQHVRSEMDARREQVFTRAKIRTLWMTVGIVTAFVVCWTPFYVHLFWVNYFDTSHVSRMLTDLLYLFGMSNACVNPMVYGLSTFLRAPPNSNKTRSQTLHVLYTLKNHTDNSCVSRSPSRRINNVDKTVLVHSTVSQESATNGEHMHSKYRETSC
Text: as §1
Five millimoles of stock solutions of all peptides were first prepared in 50% Dimethyl sulfoxide. […] These receptors were codon-optimized for mammalian cell lines, synthesized and cloned into pcDNA3.4(+) vector by Genscript synthesis services. A 5′ partial Kozak translation initiation sequence (CCACC) was also included to improve expression. The codon-optimized receptor sequences are provided in supplementary file 9, Supplementary Material online. HEK293-G5a (Angio-proteomie CAT no. cAP-0200GFP-AEQ-Cyto) cells were cultured in 96 well-plates containing 100 μl of Dublecco’s Modified Eagle medium (DMEM; Thermo; Cat. No. 10566016) supplemented with 10% foetal bovine serum (Thermo; Cat. No. 10082147). The plates were kept in an incubator at 37°C and 5% CO2. Upon reaching 85% confluency, cells were co-transfected with plasmids encoding individual receptors or the empty pcDNA3.1 + vector (control), and the Gαqi9 promiscuous protein [Addgene; Cat. No. 125711 {[Masharina et al. 2012]}], as described previously ([Yañez-Guerra et al. 2022]). Transfections were carried out with 60 ng of each plasmid and 0.45 μl of the transfection reagent Transfectamine 5,000 (AAT-bioquest; Cat. No. 60022) per well. Two days post-transfection, the media was replaced with fresh DMEM medium supplemented with […] coelenterazine-H (Thermo Fisher Scientific; Cat. No. C6780). The cells were incubated for 2 h and then used for the luminescence assay. Various concentrations of the three synthetic peptides ranging from 10^−4 M to 10^−12 M were prepared in DMEM media and tested on the cells. Luminescence levels were recorded and integrated over a 65-s measurement period in a FlexStation 3 Multi-Mode Microplate Reader (Molecular Devices). A minimum of two independent transfections (biological replicates) for each receptor and two–three technical replicates for each peptide concentration were performed. The responses were normalized to the maximum response obtained following the addition of peptide in each experiment (100% activation) and to the response obtained with the vehicle media (0% activation). Normalized data from the independent transfections was used to plot the dose–response curves (fitted with a four-parameter curve) using the package drc in R ([Ritz et al. 2015]). The raw data for the emtpy-vector control and receptor characterization are provided in supplementary files 10 and 11, Supplementary Material online, respectively. The script used for the dose–response curve analysis is available on Github (https://github.com/Imnotabioinformatician/Branchiostoma_Dose_response_curves).

[1] = biological target: one of the two CRZ-like receptors; set-up: method as in Roch, Tello, et al. 2014; settings: ref Roch, Tello, et al. 2014; cited from earlier work
B. floridae CRZR2 = biological target: T5, B. floridae CRZR2 (Branchiostoma floridae, UniProt C4N9P5); assay: Luminescence response in HEK293-G5a cells expressing B. floridae CRZR2 (with Gαqi9); assay type: cell-based
T5 sequence (C4N9P5 1-421): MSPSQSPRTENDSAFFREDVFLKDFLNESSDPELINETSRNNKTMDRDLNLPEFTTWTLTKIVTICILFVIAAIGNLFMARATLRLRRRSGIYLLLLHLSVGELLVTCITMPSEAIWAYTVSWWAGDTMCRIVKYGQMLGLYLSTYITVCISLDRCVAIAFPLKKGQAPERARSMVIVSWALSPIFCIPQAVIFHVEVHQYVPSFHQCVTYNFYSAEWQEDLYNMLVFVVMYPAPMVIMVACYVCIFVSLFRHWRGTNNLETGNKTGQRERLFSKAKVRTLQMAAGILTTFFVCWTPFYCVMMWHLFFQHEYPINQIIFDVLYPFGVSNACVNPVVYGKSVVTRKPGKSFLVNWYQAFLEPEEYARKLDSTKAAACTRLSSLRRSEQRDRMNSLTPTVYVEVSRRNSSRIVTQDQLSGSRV
Text: as §1
Five millimoles of stock solutions of all peptides were first prepared in 50% Dimethyl sulfoxide. […] These receptors were codon-optimized for mammalian cell lines, synthesized and cloned into pcDNA3.4(+) vector by Genscript synthesis services. A 5′ partial Kozak translation initiation sequence (CCACC) was also included to improve expression. The codon-optimized receptor sequences are provided in supplementary file 9, Supplementary Material online. HEK293-G5a (Angio-proteomie CAT no. cAP-0200GFP-AEQ-Cyto) cells were cultured in 96 well-plates containing 100 μl of Dublecco’s Modified Eagle medium (DMEM; Thermo; Cat. No. 10566016) supplemented with 10% foetal bovine serum (Thermo; Cat. No. 10082147). The plates were kept in an incubator at 37°C and 5% CO2. […] The cells were incubated for 2 h and then used for the luminescence assay. […] Luminescence levels were recorded and integrated over a 65-s measurement period in a FlexStation 3 Multi-Mode Microplate Reader (Molecular Devices). […]

Molecule	EC50 for the response, GnRHR2 (in words) (B. floridae GnRHR2; HEK293-G5a cells, luminescence)	EC50 (B. floridae GnRHR2; fig. 2D, HEK293-G5a, Gαqi9, 10^−4 M to 10^−12 M in DMEM, luminescence integrated over 65 s, normalized to maximum response, four-parameter curve, minimum of two independent transfections, read-out: EC50 values for the dose–response curves, GnRHR2) [nM]	EC50 for the response, CRZR1 (in words) (B. floridae CRZR1)	EC50 for the response, GnRHR1 (in words) (B. floridae GnRHR1; HEK293-G5a cells, luminescence)	EC50 (B. floridae GnRHR1; fig. 2D, HEK293-G5a, Gαqi9, 10^−4 M to 10^−12 M in DMEM, luminescence integrated over 65 s, normalized to maximum response, four-parameter curve, minimum of two independent transfections, read-out: EC50 values for the dose–response curves, GnRHR1) [nM]	EC50 (B. floridae CRZR3) [nM]	activation of one of the two CRZ-like receptors (in words) [1]	activation of GnRHR2 (in words) (B. floridae GnRHR2; HEK293-G5a cells, luminescence)	EC50 for the response, CRZR2 (in words) (B. floridae CRZR2)	activation of CRZR2 (in words) (B. floridae CRZR2)	activation of CRZR1 (in words) (B. floridae CRZR1)	activation of GnRHR1 (in words) (B. floridae GnRHR1; HEK293-G5a cells, luminescence)	EC50 for the response, CRZR3 (in words) (B. floridae CRZR3; HEK293-G5a cells, luminescence)	activation of CRZR3 (in words) (B. floridae CRZR3; HEK293-G5a cells, luminescence)
YSYSYGFAP-NH2	low nanomolar range	2.2	mid-to-low nanomolar physiological range	low nanomolar range	3.2	3800	–	–	–	–	–	–	–	–
CC[C@H](C)[C@H](NC(=O)[C@@H]1CCC(=O)N1)C(=O)N[C@@H](CC(C)C)C(=O)N[C@@H](CS)C(=O)N[C@@H](C)C(=O)N[C@@H](CCCNC(=N)N)C(=O)N[C@@H](C)C(=O)N[C@@H](Cc1ccccc1)C(=O)N[C@H](C(=O)N[C@@H](Cc1ccc(O)cc1)C(=O)N[C@H](C(=O)N[C@@H](Cc1c[nH]cn1)C(=O)N[C@H](C(=O)N[C@@H](Cc1c[nH]c2ccccc12)C(N)=O)[C@@H](C)O)[C@@H](C)O)[C@@H](C)O [CRZ-ext] ([pGlu]ILCARAFTYTHTW-NH2)	–	–	equally high	–	–	950	high nanomolar range	Neither of these two receptors were activated	high nanomolar range	all activated by CRZ, GnRH, and CRZ-ext	all activated by CRZ, GnRH, and CRZ-ext; also recorded: also activated by CRZ-ext	Neither of these two receptors were activated	equally high	all activated by CRZ, GnRH, and CRZ-ext; also recorded: also activated by CRZ-ext
FTYTHTW-NH2 [CRZ, FTYTHTW-NH2]	–	–	–	–	–	6.9	–	–	–	–	–	–	–	–

From PMC10321317 (Genome Biology and Evolution, 2023)
